Assay results as given in US20260284011A1, “COMPOUNDS FOR RESTORING SUSCEPTIBILITY TO BETA-LACTAM ANTIBIOTICS” (UNIVERSITY OF NOTRE DAME DU LAC, priority 2023, published 2026).
Where two headings read alike, the source gives them in different places.

Legend:
[1] = tested on: HIP15178 (VRS5), MRSA/VRSA, SCCmec II, bla +; assay: MIC determination and potentiation assay (microdilution broth); type: cell-based, Staphylococcus aureus; conditions: for MIC: Staphylococcus aureus
Description: (§1) MICs were determined by the microdilution broth method following the Clinical & Laboratory Standards Institute (CLSI) guidelines. […] Experiments were performed in triplicate in 96-well plates with 5×10^5 CFU·mL^−1 of bacteria. […] The MIC was the concentration for which bacterial growth was not observed.

[2] = tested on: LIM2 (NRS36), MRSA, SCCmec I, bla +; assay: as above; type: cell-based, Staphylococcus aureus; conditions: for MIC: Staphylococcus aureus
Description: as §1

[3] = tested on: HIP07920 (NRS21), MRSA/VISA, SCCmec IV, bla +; assay: as above; type: cell-based, Staphylococcus aureus; conditions: for MIC: Staphylococcus aureus, agent alone
Description: as §1

[4] = tested on: JE2, MRSA, SCCmec IV, bla −; assay: as above; type: cell-based, Staphylococcus aureus; conditions: for MIC: Staphylococcus aureus, MRSA, agent alone
Description: as §1

[5] = tested on: COL (NRS100), MRSA, SCCmec I, bla −; assay: as above; type: cell-based, Staphylococcus aureus; conditions: for MIC: Staphylococcus aureus
Description: as §1

ATCC 29213, MSSA, bla + = assay: as above; type: cell-based, Staphylococcus aureus; conditions: for MIC: Staphylococcus aureus
Description: as §1

[6] = tested on: HIP 133170 (VRS3a), MRSA/VRSA, SCCmec IV, bla +; assay: as above; type: cell-based, Staphylococcus aureus; conditions: for MIC: Staphylococcus aureus
Description: as §1

[7] = tested on: NTCT 8325 (NRS77), MSSA, bla −; assay: as above; type: cell-based, Staphylococcus aureus; conditions: for MIC: Staphylococcus aureus
Description: as §1

[8] = tested on: various MRSA strains (NRS21, NRS70, NRS382, NRS404, HFH29568, HFH30495); assay: Time-kill assays (FIG. 6); type: cell-based, Staphylococcus aureus; conditions: at 24 h
Description: Time-kill assay. MRSA strains (NRS21, NRS70, NRS382, NRS404, HFH 29568, and HFH 30495) were grown overnight on tryptic soy agar plate. Bacteria were diluted in Muller-Hinton broth containing 2% NaCl to […] CFU·mL^−1. […] For MEM and CPT, cation-adjusted Muller-Hinton broth without 2% NaCl was used. Aliquots were taken at 0, 3, 6, 9, 12, and 24 h and were diluted serially for bacterial counts. The assay was done in triplicate.

[9] = tested on: SR4035, MRSA, SCCmec IV, bla +; assay: MIC determination and potentiation assay (microdilution broth); type: cell-based; conditions: Staphylococcus aureus
Description: as §1

[10] = tested on: H2138 (NRS271), MRSA, SCCmec IV, bla +; assay: as above; type: cell-based; conditions: Staphylococcus aureus
Description: as §1

[11] = tested on: FPR3757, MRSA, USA300 clone, SCCmec IV, bla +; assay: as above; type: cell-based; conditions: Staphylococcus aureus
Description: as §1

[12] = tested on: HFH 29568, MRSA, USA300 clone, SCCmec IV, bla +; assay: as above; type: cell-based; conditions: Staphylococcus aureus
Description: as §1

[13] = tested on: MW2 (NRS123), MRSA, SCCmec IV, bla +; assay: as above; type: cell-based; conditions: Staphylococcus aureus
Description: as §1

[14] = tested on: HIP06297 (NRS17), MRSA, SCCmec II, bla +; assay: as above; type: cell-based; conditions: Staphylococcus aureus
Description: as §1

[15] = tested on: M1712 (NRS127), MRSA, SCCmec II, bla +; assay: as above; type: cell-based; conditions: Staphylococcus aureus
Description: as §1

[16] = tested on: HI049, MRSA, USA300 clone, SCCmec IV, bla +; assay: as above; type: cell-based; conditions: Staphylococcus aureus, agent alone
Description: as §1

[17] = tested on: USA300-0114 (NRS384), MRSA, SCCmec IV, bla +; assay: as above; type: cell-based; conditions: Staphylococcus aureus
Description: as §1

[18] = tested on: CM05, MRSA, SCCmec I, bla +; assay: as above; type: cell-based; conditions: Staphylococcus aureus
Description: as §1

[19] = tested on: CA-347 (NRS648), MRSA, SCCmec II, bla +; assay: as above; type: cell-based; conditions: Staphylococcus aureus
Description: as §1

[20] = tested on: CO-34 (NRS662), MRSA, SCCmec IV, bla +; assay: as above; type: cell-based; conditions: Staphylococcus aureus
Description: as §1

[21] = tested on: N315 (NRS70), MRSA, SCCmec II, bla +; assay: as above; type: cell-based; conditions: Staphylococcus aureus
Description: as §1

[22] = tested on: HT 20020320 (NRS245), MRSA, SCCmec IV, bla +; assay: as above; type: cell-based; conditions: Staphylococcus aureus
Description: as §1

[23] = tested on: HIP5836 (NRS4), MRSA/VISA, SCCmec II, bla +; assay: as above; type: cell-based; conditions: Staphylococcus aureus, agent alone
Description: as §1

[24] = HIP15178 (VRS5), agent alone, read-out: MIC
[25] = LIM2 (NRS36), agent alone, read-out: MIC
[26] = COL (NRS100), agent alone, read-out: MIC
[27] = ATCC 29213, agent alone, read-out: MIC
[28] = HIP 133170 (VRS3a), agent alone, read-out: MIC
[29] = NTCT 8325 (NRS77), agent alone, read-out: MIC
[30] = SR4035, agent alone, read-out: MIC
[31] = H2138 (NRS271), agent alone, read-out: MIC
[32] = FPR3757, agent alone, read-out: MIC
[33] = HFH 29568, agent alone, read-out: MIC
[34] = MW2 (NRS123), agent alone, read-out: MIC
[35] = HIP06297 (NRS17), agent alone, read-out: MIC
[36] = M1712 (NRS127), agent alone, read-out: MIC
[37] = USA300-0114 (NRS384), agent alone, read-out: MIC
[38] = CA-347 (NRS648), agent alone, read-out: MIC
[39] = CO-34 (NRS662), agent alone, read-out: MIC
[40] = N315 (NRS70), agent alone, read-out: MIC
[41] = HT 20020320 (NRS245), agent alone, read-out: MIC
[42] = MSSA strain ATCC29213, 4 at 8 mg·L^−1
[43] = strain NTCT8325, 4 at 8 mg·L^−1

Row | Structure (SMILES) | MIC [1, 24] [µg/mL] | MIC [2, 25] [µg/mL] | MIC ([3]; HIP07920 (NRS21)) [µg/mL] | MIC [4] [µg/mL] | MIC [5, 26] [µg/mL] | MIC (ATCC 29213, MSSA, bla +; [27]) [µg/mL] | MIC [6, 28] [µg/mL] | MIC [7, 29] [µg/mL] | reduction in bacterial growth by itself [8] | MIC [9, 30] [µg/mL] | MIC [10, 31] [µg/mL] | MIC [11, 32] [µg/mL] | MIC [12, 33] [µg/mL] | MIC [13, 34] [µg/mL] | MIC [14, 35] [µg/mL] | MIC [16] [µg/mL] | MIC [17, 37] [µg/mL] | MIC [18] [µg/mL] | MIC [20, 39] [µg/mL] | MIC [23] [µg/mL] | also measured
1 | CCO/N=C(\C(=O)N[C@@H]1C(=O)N2C(C(=O)[O-])=C(Sc3nc(-c4cc[n+](C)cc4)cs3)CS[C@H]12)c1nsc(N)n1 [CPT, ceftaroline] | 1 | 1 | 0.5 | 1 | 1 | 0.06 | 1 | 0.25 | Neither OXA, MEM, CPT, or compound 4 by itself showed reduction in bacterial growth | 1 | 1 | 0.5 | 1 | 1 | 1 | 1 | 0.5 | 2 | 1 | 0.25 | MIC [15, 36]: 1 µg/mL; MIC [19, 38]: 1 µg/mL; MIC [21, 40]: 1 µg/mL; MIC [22, 41]: 0.5 µg/mL
2 | N#Cc1ccc2nc(SCB(O)O)n(Cc3ccc(C(F)(F)F)cc3C(F)(F)F)c2c1 [Compound 4, (((1-(2,4-bis(trifluoro-methyl)benzyl)-6-cyano-1H-benzo[d]imidazol-2-yl)thio)methyl)boronic acid] | 32 | 16 | 8 | 16 | 32 | 16 | 16 | 16 | Neither OXA, MEM, CPT, or compound 4 by itself showed reduction in bacterial growth | 16 | 16 | 16 | 16 | 16 | 32 | 16 | 16 | 32 | 16 | 16 | fold lowering of MEM MIC by 4 ([1]; vancomycin-resistant MRSA, Table 1 entry 13 (VRS5)): 64 fold; fold lowering of MEM MIC by 4 ([2]; strain NRS36, 4 at 8 mg·L^−1): 512 fold; fold lowering of OXA MIC by 4 ([2]; strain NRS36, 4 at 8 mg·L^−1): 64 fold; fold lowering of FOX MIC by 4 ([3]; strain NRS21, 4 at 4 mg·L^−1): 2048 fold; fold reduction of OXA MIC by 4 ([3]; strain NRS21, 4 at 4 mg·L^−1): 4096 fold; fold lowering of MEM MIC by 4 ([4]; 4 at 8 mg·L^−1): 64 fold; fold reduction of OXA MIC by 4 ([4]; 4 at 8 mg·L^−1): 2 fold; fold lowering of MEM MIC by 4 ([5]; COL, 4 at 8 mg·L^−1): 16 fold; fold reduction of OXA MIC by 4 ([5]; COL, 4 at 8 mg·L^−1): 2 fold; fold lowering of MEM MIC by 4 (ATCC 29213, MSSA, bla +; [42]): 2 fold; fold lowering of OXA MIC by 4 (ATCC 29213, MSSA, bla +; [42]): 4 fold; fold lowering of MEM MIC by 4 ([6]; vancomycin-resistant MRSA, Table 1 entry 19 (VRS3a)): 256 fold; effect of 4 on the OXA MIC [7, 43]: no effect; fold lowering of MEM MIC by 4 [7, 43]: 2 fold; MIC [15, 36]: 16 µg/mL; MIC [19, 38]: 16 µg/mL; MIC [21, 40]: 16 µg/mL; MIC [22, 41]: 16 µg/mL
3 | CO[C@@]1(NC(=O)Cc2cccs2)C(=O)N2C(C(=O)O)=C(COC(N)=O)CS[C@@H]21 [FOX, cefoxitin] | – | – | 64 | 64 | 256 | 4 | – | 4 | – | – | – | 64 | 32 | 64 | 256 | 64 | 64 | 512 | 64 | 64 | MIC [1]: 128 µg/mL; MIC [2]: 128 µg/mL; MIC [6]: 128 µg/mL; MIC [9]: 128 µg/mL; MIC [10]: 128 µg/mL; MIC [15]: 128 µg/mL; MIC [19]: 128 µg/mL; MIC [21]: 128 µg/mL; MIC [22]: 128 µg/mL
4 | Cc1onc(-c2ccccc2)c1C(=O)N[C@@H]1C(=O)N2[C@@H]1SC(C)(C)[C@@H]2C(=O)O [OXA, oxacillin] | – | – | – | – | – | – | – | – | Neither OXA, MEM, CPT, or compound 4 by itself showed reduction in bacterial growth | – | – | – | – | – | – | – | – | 512 | – | – | MIC [1]: 256 µg/mL; MIC [2]: 64 µg/mL; MIC of the β-lactam with 4 ([3]; HIP07920 (NRS21), Concentration of 4: 4 mg · L^−1): 0.03 µg/mL; MIC [5]: 512 µg/mL; MIC (ATCC 29213, MSSA, bla +): 2 µg/mL; MIC [6]: 256 µg/mL; MIC [7]: 0.25 µg/mL; MIC [9]: 128 µg/mL; MIC [10]: 256 µg/mL; MIC [11]: 64 µg/mL; MIC [12]: 64 µg/mL; MIC [13]: 64 µg/mL; MIC [14]: 2 µg/mL; MIC [15]: 256 µg/mL; MIC [17]: 128 µg/mL; MIC [19]: 256 µg/mL; MIC [20]: 64 µg/mL; MIC [22]: 64 µg/mL
